The target in one assay is T1, TRPML1 (Homo sapiens, UniProt Q9GZU1).
T1 construct: expressed in transfected cells; host or cells: HEK T-REx cells stably expressing GCaMP6f and TRPML1
The experiment in a line: Cellular TRPML1 assay (FLIPR, GCaMP6f calcium read-out). The assay is classed as cell-based. The following applies: HEKT-REx/GCaMP6f/TRPML1 cells, FLIPR TETRA, kinetic response over 300 seconds; read-out: TRPML1 FLIPR pEC50 (converted). Summed up:
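HEK T-REx cells stably expressing TRPML1 and GCaMP6f, seeded 24 h before in Optimem + 0.5% FBS. After ~10 min pre-incubation at room temperature, compounds in Ca2+-free Tyrode's buffer were injected on FLIPR Tetra (final DMSO 0.5%). Calcium fluorescence kinetics followed for 300 s.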

In a further assay the test system is TFEB. Briefly: TFEB translocation assay (TFEB reporter in U2OS cells, imaging). Type of assay: cell-based. The following applies: Homo sapiens; U2OS cell line with TFEB reporter, 2 hours incubation, nucleus to cytoplasm ratio, normalized to Torin-1; read-out: TFEB Translocation pEC50 (converted). An outline of the steps: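 U2OS cells stably expressing mRFP-fused TFEB reporter, switched to Opti-MEM then treated 2 h at 37 °C with compounds (0.5% DMSO, 0.015% Tween 80). Hoechst-stained, PFA-fixed cells imaged at 20×; nucleus/cytoplasm intensity ratio per well normalized to Torin-1 (100%) and DMSO (0%).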

T1 sequence (Q9GZU1 whole entry): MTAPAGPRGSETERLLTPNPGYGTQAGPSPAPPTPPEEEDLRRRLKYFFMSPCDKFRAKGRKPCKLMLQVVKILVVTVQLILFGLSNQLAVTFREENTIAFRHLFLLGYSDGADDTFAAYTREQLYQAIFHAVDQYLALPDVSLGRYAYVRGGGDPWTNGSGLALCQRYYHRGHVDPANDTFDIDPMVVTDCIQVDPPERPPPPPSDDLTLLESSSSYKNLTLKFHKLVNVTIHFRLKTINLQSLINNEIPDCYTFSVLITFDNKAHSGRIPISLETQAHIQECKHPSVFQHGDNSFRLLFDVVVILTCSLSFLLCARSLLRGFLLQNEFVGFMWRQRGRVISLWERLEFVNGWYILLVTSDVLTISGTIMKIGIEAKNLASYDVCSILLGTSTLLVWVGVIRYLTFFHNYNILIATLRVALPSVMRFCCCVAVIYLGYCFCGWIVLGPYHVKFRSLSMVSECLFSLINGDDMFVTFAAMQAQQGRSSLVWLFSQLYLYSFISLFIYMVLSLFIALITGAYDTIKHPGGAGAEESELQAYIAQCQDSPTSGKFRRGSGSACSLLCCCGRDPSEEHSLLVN

For `CC(C)OCc1oc(N2CCCC2)nc1C(=O)Nc1ccc(N2CCCCC2)c(F)c1` [Example 108, N-(3-fluoro-4-(piperidin-1-yl)phenyl)-5-(isopropoxymethyl)-2-(pyrrolidin-1-yl)oxazole-4-carboxamide], the values for the EC50 on TRPML1 and in the assay with TFEB were 1000 to 10000 nM and 10 to 1000 nM, respectively.

On to `CC(C)Cc1oc(N2CCCC2)nc1C(=O)Nc1ccc(OC2CCCC2(F)F)c(F)c1` (stereo not drawn) [Example 111, N-(4-((2,2-difluorocyclopentyl)oxy)-3-fluorophenyl)-5-isobutyl-2-(pyrrolidin-1-yl)oxazole-4-carboxamide], for which the EC50 at TRPML1 was 1000 to 10000 nM; in the assay with TFEB it was 10 to 1000 nM.

Consider `Cc1oc(N2CCCC2)nc1C(=O)Nc1ccc(N2CCCCC2)c(F)c1` [Example 112, N-(3-fluoro-4-(piperidin-1-yl)phenyl)-5-methyl-2-(pyrrolidin-1-yl)oxazole-4-carboxamide], for which the EC50 on TRPML1 and with TFEB was 1000 to 10000 nM in each case.

Consider `Cc1oc(N2CCOCC2)nc1C(=O)Nc1ccc(N2CCCCC2)c(F)c1` [Example 116, N-(3-fluoro-4-(piperidin-1-yl)phenyl)-5-methyl-2-morpholinooxazole-4-carboxamide], for which the EC50 at TRPML1 and in the assay on TFEB was 10000 to 100000 nM in each case.

Take `Cc1oc(-n2cccn2)nc1C(=O)Nc1ccc(N2CCCCC2)c(F)c1` [Example 118, N-(3-fluoro-4-(piperidin-1-yl)phenyl)-5-methyl-2-(1H-pyrazol-1-yl)oxazole-4-carboxamide]: the EC50 at TRPML1 is 10000 to 100000 nM; in the assay on TFEB, 1000 to 10000 nM.

In the case of `Cc1oc(N2CCCC2)nc1C(=O)Nc1ccc(OC2CCCC2)c(F)c1` [Example 120, N-(4-(cyclopentyloxy)-3-fluorophenyl)-5-methyl-2-(pyrrolidin-1-yl)oxazole-4-carboxamide], the EC50 at TRPML1 and in the assay on TFEB was 1000 to 10000 nM each time.

As to `COCC1(C)CN(c2nc(C(=O)Nc3cc(C)c(O[C@@H]4C[C@@H]5C[C@@H]5C4)c(F)c3)c(CC(F)(F)F)o2)C1` [Example 124, N-(4-(cis-bicyclo[3.1.0]hexan-3-yloxy)-3-fluoro-5-methylphenyl)-2-(3-(methoxymethyl)-3-methylazetidin-1-yl)-5-(2,2,2-trifluoroethyl)oxazole-4-carboxamide], the EC50 at TRPML1 and in the assay with TFEB was 10 to 1000 nM in each case.

Turning to `CCC1(COC)CN(c2nc(C(=O)Nc3cc(C)c(O[C@@H]4C[C@@H]5C[C@@H]5C4)c(F)c3)c(CC(F)(F)F)o2)C1` [Example 125, N-(4-(cis-bicyclo[3.1.0]hexan-3-yloxy)-3-fluoro-5-methylphenyl)-2-(3-(methoxymethyl)-3-ethylazetidin-1-yl)-5-(2,2,2-trifluoroethyl)oxazole-4-carboxamide], the EC50 at TRPML1 and in the assay on TFEB was 10 to 1000 nM throughout.

Turning to `CCC1(CO)CN(c2nc(C(=O)Nc3cc(F)c(O[C@@H]4C[C@@H]5C[C@@H]5C4)c(Cl)c3)c(CC(F)(F)F)o2)C1` [Example 126, N-(4-(cis-bicyclo[3.1.0]hexan-3-yloxy)-3-chloro-5-fluorophenyl)-2-(3-ethyl-3-(hydroxymethyl)azetidin-1-yl)-5-(2,2,2-trifluoroethyl)oxazole-4-carboxamide], the EC50 at TRPML1 and with TFEB was 10 to 1000 nM in each case.

Consider `CCC1(CC)CN(c2nc(C(=O)Nc3cc(F)c(O[C@@H]4C[C@@H]5C[C@@H]5C4)c(Cl)c3)c(CC(F)(F)F)o2)C1` [Example 127, N-(4-(cis-bicyclo[3.1.0]hexan-3-yloxy)-3-chloro-5-fluorophenyl)-2-(3,3-diethylazetidin-1-yl)-5-(2,2,2-trifluoroethyl)oxazole-4-carboxamide], for which the EC50 at TRPML1 and in the assay with TFEB was 10 to 1000 nM each time.

On to `Cc1cc(NC(=O)c2nc(N3CC(C)(CO)C3)oc2CC(F)(F)F)cc(F)c1O[C@@H]1C[C@@H]2C[C@@H]2C1` [Example 128], for which the EC50 at TRPML1 and in the assay with TFEB was 10 to 1000 nM each time.

Turning to `Cc1cc(NC(=O)c2nc(N3CC(C)(CO)C3)oc2CC(F)(F)F)cc(F)c1OC1CC2CC(C2)C1` (stereo not drawn) [Example 129, N-(4-(bicyclo[3.1.1]heptan-3-yloxy)-3-fluoro-5-methylphenyl)-2-(3-(hydroxymethyl)-3-methylazetidin-1-yl)-5-(2,2,2-trifluoroethyl)oxazole-4-carboxamide], the EC50 at TRPML1 and in the assay with TFEB was 10 to 1000 nM throughout.

For `COC1(C)CN(c2nc(C(=O)Nc3cc(F)c(O[C@@H]4C[C@@H]5C[C@@H]5C4)c(Cl)c3)c(CC(F)(F)F)o2)C1` [Example 130, N-(4-(cis-bicyclo[3.1.0]hexan-3-yloxy)-3-chloro-5-fluorophenyl)-2-(3-methoxy-3-methylazetidin-1-yl)-5-(2,2,2-trifluoroethyl)oxazole-4-carboxamide], the EC50 on TRPML1 and in the assay with TFEB was 10 to 1000 nM throughout.

Consider `CCC1(CC)CN(c2nc(C(=O)Nc3cc(C)c(O[C@@H]4C[C@@H]5C[C@@H]5C4)c(F)c3)c(CC(F)(F)F)o2)C1` [Example 131, N-(4-(cis-bicyclo[3.1.0]hexan-3-yloxy)-3-fluoro-5-methylphenyl)-2-(3,3-diethylazetidin-1-yl)-5-(2,2,2-trifluoroethyl)oxazole-4-carboxamide], for which the EC50 at TRPML1 and with TFEB was 10 to 1000 nM in each case.

On to `CC1(CO)CN(c2nc(C(=O)Nc3ccc(OC4CC5CC(C5)C4)c(F)c3)c(CC(F)(F)F)o2)C1` (stereo not drawn) [Example 135, N-(4-(bicyclo[3.1.1]heptan-3-yloxy)-3-fluorophenyl)-2-(3-(hydroxymethyl)-3-methylazetidin-1-yl)-5-(2,2,2-trifluoroethyl)oxazole-4-carboxamide], for which the EC50 at TRPML1 and in the assay with TFEB was 10 to 1000 nM throughout.

`CC1(C)CN(c2nc(C(=O)Nc3ccc(OC4CCC5CC54)c(F)c3)c(CC(F)(F)F)o2)C1` (stereo not drawn) [Example 140, N-(4-(bicyclo[3.1.0]hexan-2-yloxy)-3-fluorophenyl)-2-(3,3-dimethylazetidin-1-yl)-5-(2,2,2-trifluoroethyl)oxazole-4-carboxamide]: the EC50 is 1000 to 10000 nM on TRPML1 and 10 to 1000 nM in the assay with TFEB.

With `COC1(C)CN(c2nc(C(=O)Nc3cc(F)c(O[C@@H]4C[C@@H]5C[C@@H]5C4)c(C#N)c3)c(CC(F)(F)F)o2)C1` [Example 142, N-(4-(cis-bicyclo[3.1.0]hexan-3-yloxy)-3-cyano-5-fluorophenyl)-2-(3-methoxy-3-methylazetidin-1-yl)-5-(2,2,2-trifluoroethyl)oxazole-4-carboxamide], the EC50 on TRPML1 and in the assay with TFEB was 10 to 1000 nM in each case.

`O=C(Nc1ccc(OC2CC3CC(C3)C2)c(F)c1)c1nc(N2CCCC2)oc1CC(F)(F)F` (stereo not drawn) [Example 143, N-(4-(bicyclo[3.1.1]heptan-3-yloxy)-3-fluorophenyl)-2-(pyrrolidin-1-yl)-5-(2,2,2-trifluoroethyl)oxazole-4-carboxamide]: the EC50 at TRPML1 and in the assay with TFEB was 10 to 1000 nM each time.

`O=C(Nc1cc(F)c(O[C@@H]2C[C@@H]3C[C@@H]3C2)c(F)c1)c1nc(N2CCC3COCC32)oc1CC(F)(F)F` (stereo partly drawn) [Example 144, N-(4-(cis-bicyclo[3.1.0]hexan-3-yloxy)-3,5-difluorophenyl)-2-(hexahydro-1H-furo[3,4-b]pyrrol-1-yl)-5-(2,2,2-trifluoroethyl)oxazole-4-carboxamide]: the EC50 at TRPML1 and in the assay on TFEB was 10 to 1000 nM throughout.

`CCC1(CC)CN(c2nc(C(=O)Nc3cc(F)c(OC4CC5CC(C5)C4)c(F)c3)c(CC(F)(F)F)o2)C1` (stereo not drawn) [Example 145, N-(4-(bicyclo[3.1.1]heptan-3-yloxy)-3,5-difluorophenyl)-2-(3,3-diethylazetidin-1-yl)-5-(2,2,2-trifluoroethyl)oxazole-4-carboxamide]: the EC50 on TRPML1 and in the assay with TFEB was 10 to 1000 nM in each case.

For `CCC1(OC)CN(c2nc(C(=O)Nc3cc(F)c(OC4CC5CC(C5)C4)c(F)c3)c(CC(F)(F)F)o2)C1` (stereo not drawn) [Example 148, N-(4-(bicyclo[3.1.1]heptan-3-yloxy)-3,5-difluorophenyl)-2-(3-ethyl-3-methoxyazetidin-1-yl)-5-(2,2,2-trifluoroethyl)oxazole-4-carboxamide], the EC50 at TRPML1 and in the assay on TFEB was 10 to 1000 nM in each case.

On to `CCC1(OC)CN(c2nc(C(=O)Nc3ccc(OC4CC5CC(C5)C4)c(F)c3)c(CC(F)(F)F)o2)C1` (stereo not drawn) [Example 149, N-(4-(bicyclo[3.1.1]heptan-3-yloxy)-3-fluorophenyl)-2-(3-ethyl-3-methoxyazetidin-1-yl)-5-(2,2,2-trifluoroethyl)oxazole-4-carboxamide], for which the EC50 on TRPML1 and in the assay with TFEB was 10 to 1000 nM in each case.

Regarding `CCC1(OC)CN(c2nc(C(=O)Nc3cc(F)c(OC4CC5CCC4C5)c(F)c3)c(CC(F)(F)F)o2)C1` (stereo not drawn) [Example 150, N-(4-(bicyclo[2.2.1]heptan-2-yloxy)-3,5-difluorophenyl)-2-(3-ethyl-3-methoxyazetidin-1-yl)-5-(2,2,2-trifluoroethyl)oxazole-4-carboxamide], the EC50 at TRPML1 and in the assay with TFEB was 10 to 1000 nM in each case.

On to `O=C(Nc1ccc(O[C@@H]2CC3C[C@@H]3C2)c(F)c1)c1nc(N2CCC3CC32)oc1CC(F)(F)F` (stereo partly drawn) [Example 154, 2-(2-azabicyclo[3.1.0]hexan-2-yl)-N-(4-(cis-bicyclo[3.1.0]hexan-3-yloxy)-3-fluorophenyl)-5-(2,2,2-trifluoroethyl)oxazole-4-carboxamide], for which the EC50 on TRPML1 and with TFEB was 10 to 1000 nM each time.

(Values after US12098145B2 (Libra Therapeutics, Inc., priority 2022, dated 2024).)
